The values below come from patent publication US20160017312A1, “METHOD FOR MODULATING A BACTERIAL INVASION SWITCH” (priority 2012, published 2016).

In this experiment the test system is S. meliloti cells. The experiment in a line: Whole cell motility (swimming colonies) with added calcium. In kind it is cell-based, Sinorhizobium meliloti. As to conditions: 1 mM Ca; protease active, non-swimming S. meliloti cells. The procedure:
Example 2. In no calcium or low calcium condition, most of ExoRm is in the monomeric form sensitive to protease digestion. Adding 1 mM or more Ca will turn ExoRm into dimeric form, preventing protease from binding and digesting ExoRm. So Ca is an indirect inhibitor of the protease. […] This is a typical indirect inhibitor. In the same fashion, most ions are indirect inhibitors of ExoRm protease.
Example 1. Whole cell motility assay: The whole cell motility assay is based on the fact that inhibition of the protease lead to ExoRm increase and the cell becoming motile. The initial condition may be set with either low pH or low ion concentration, so that S. meliloti cells will form non-swimming colonies. The putative direct or indirect inhibitors can be mixed with S. meliloti cells in soft agar plates. The ones that can make S. meliloti cells to form swimming colonies are the potential direct or indirect inhibitors.
Bacterial cell motility was examined using swarming plates containing 0.3% agar as described previously with some modifications. Briefly, fresh cell cultures were prepared and diluted to OD600 of 0.1. Then 2 μL of each diluted culture was inoculated into LB/MC soft agar plate and incubated for 2-3 days to determine colony size.

With `[Ca+2]` [Ca], the “effect on swimming of S. meliloti cells” value was “turn protease active, non-swimming S. meliloti cells into swimming cells”.
